The nature of test [1]: Antioxidant activity assessed as inhibition of ABTS free radical. Also on record: concentration or dose not given beside the values. Format: functional. Particulars: dose or concentration not given here.
Test [2] in a line: Cytotoxicity against Mus musculus (mouse) EAC cells assessed as dead cell at ED100 ug/cm'3 after 2 hr by trypan blue assay. Format: functional, Ehrlich.
A short description of test [3]: Cytotoxicity against Mus musculus (mouse) EAC cells assessed as dead cell at ED50 ug/cm'3 after 2 hr by trypan blue assay. Format: functional, Ehrlich.
A short description of test [4]: Cytotoxicity against Mus musculus (mouse) EAC cells assessed as dead cell at ED25 ug/cm'3 after 2 hr by trypan blue assay. Format: functional, Ehrlich.

The source of these data is ChEMBL document CHEMBL3045320, “Synthesis, antitumor and antioxidant evaluation of some new thiazole and thiophene derivatives incorporated coumarin moiety” (2012).

A word on the inhibition: it is the share of the control response that was lost under treatment.

Turning to `Nc1c(C(=O)c2cc3ccccc3oc2=O)sc(Nc2ccccc2)c1-c1nc2ccccc2s1`, the inhibition in test [1] was determined as 5.94%. The figures for the Activity in test [2], in test [3] and in test [4] were 5.7%, 2.9% and 1.6%, respectively.
Take `N#C/C(=C1/SC=C(c2cc3ccccc3oc2=O)N1c1ccccc1)c1nc2ccccc2s1`: the inhibition in test [1] amounted to 4.15%. The Activity in test [2] is on record as 5.7%; in test [3] it was 3%; in test [4], 1.5%.
The matching figures for `Nc1c(C(=O)c2cc3ccccc3oc2=O)sc(Nc2ccccc2)c1C(=O)Nc1nc(-c2cc3ccccc3oc2=O)cs1`: 35.4%, 7.1%, 3% and 1.7%.
The matching figures for `N#C/C(C(=O)Nc1nc(-c2cc3ccccc3oc2=O)cs1)=C1/SC(=O)CN1c1ccccc1`: 28.9%, 7%, 3.1% and 1.6%.
With `O=C1O[C@H]([C@@H](O)CO)C(O)=C1O`, the inhibition in test [1] came out at 84%.
For the compound `O=c1[nH]cc(F)c(=O)[nH]1` [FLUOROURACIL], the Activity in test [2] came to 93%; in test [3] it was 58%; in test [4] it was 37%.
As for `Nc1nc(-c2cc3ccccc3oc2=O)cs1`, the inhibition in test [1] was determined as 74.3%.
The same measure, in the same setting: the value for `CC(=O)c1cc2ccccc2oc1=O` was 63.6%.
For `N#C/C(C(=O)N1NC(=O)C2C3c4ccccc4C(c4ccccc43)C2C1=O)=C1/SC=C(c2cc3ccccc3oc2=O)N1c1ccccc1` (stereo not drawn), in test [1], the inhibition was found to be 5.74%. Further, the results for the Activity in test [2], in test [3] and in test [4] were 5.4%, 2.6% and 1.1%, respectively.
The matching figures for `Nc1c(C(=O)c2cc3ccccc3oc2=O)sc(Nc2ccccc2)c1-c1nc2ccccc2[nH]1`: 0.19%, 5.6%, 2.6% and 1.4%.
With `Nc1c(C(=O)c2cc3ccccc3oc2=O)sc(S)c1-c1nc2ccccc2s1`, in test [1], the inhibition was found to be 75.6%.
Turning to `N=c1oc2ccccc2cc1C(=O)Nc1nc(-c2cc3ccccc3oc2=O)cs1`, in test [1], the inhibition turned out to be 61.4%. Also, the figures for the Activity in test [2], in test [3] and in test [4] were 4.9%, 2.1% and 1.3%, respectively.
In the same order, the values of `N#C/C(C(=O)Nc1nc(-c2cc3ccccc3oc2=O)cs1)=C(\Nc1ccccc1)SCC(=O)c1cc2ccccc2oc1=O` are 23.8%, 6.8%, 3.2% and 1.5%.
The matching figures for `Nc1c(C(=O)c2cc3ccccc3oc2=O)sc(Nc2ccccc2)c1C(=O)N1NC(=O)C2C3c4ccccc4C(c4ccccc43)C2C1=O` (stereo not drawn): 13.7%, 6.1%, 3% and 1.6%.
In the same order, the values of `N#CCC(=O)Nc1nc(-c2cc3ccccc3oc2=O)cs1` are 70.3%, 8%, 3.8% and 1.8%.
As for `O=C(CBr)c1cc2ccccc2oc1=O`, the inhibition in test [1] turned out to be 50.2%.
